The values that follow are results of earlier work, collected in US10214534B2, “Substituted 2-phenyl (AZA)benzofuran compounds for the treatment of hepatitis C” (BRISTOL-MYERS SQUIBB COMPANY, priority 2014, dated 2019).

In data set [1] the test system is HCV. As to conditions: cited from earlier work.
Data set [2] relates to HCV. The settings on record: cited from earlier work. This is another data set of the same source.

As for `CNC(=O)c1c(-c2ccc(F)cc2)oc2cc(N(CCO)S(C)(=O)=O)c(C3CC3)cc12` [HCV-796], in the data set with HCV [1] (extended dosing of the combination regimens), the “toxicity during extended dosing” value is recorded as “hepatic toxicity”. Also, the “HCV RNA levels in patients” value in the data set with HCV [1] (patients, single agent transient, more robust with interferon and ribavirin) is on record as “reduce HCV RNA levels”.
In the case of alpha-interferon and ribavirin, the “sustained efficacy, share of patients” value in the data set on HCV [2] was 40%.
